Experimental data: patent publication US6423541B1, “Process for in vitro selection of high methol producing genotypes” (Council of Scientific&Industrial Reaearch, priority 2000, dated 2002)

Assays:
[1] = system: callus mediated regenerants of Mentha arvensis cv. Himalaya; assay: Survival of callus mediated regenerants from internodal explants at different concentrations of menthol; format: cell-based; conditions: for Survival after 24 hours Number / Survival after 7 days Number: 20 shoots tested per replication
Source text: The Applicants selected the improved plant variety cv. Himalaya (U.S. Pat. PP 10,935: Kumar et al 1999) of Mentha arvensis L. as the base material for further improvement and selection. This variety is a hybrid between variety Gomti and Kalka and bears the high proliferating habit of Gomti and high menthol content, disease tolerant characters of Kalka. The explant material was collected from the field grown plants and surface sterilized by washing sequentially with 2% detergent, distilled water containing a few drops of Savlon (Johnson and Johnson, India), 0.1% acidified mercurie chloride and autoclaved distilled water before inoculation. About 1 cm long internode pieces were inoculated in the MS medium (Murashige and Skoog 1962) containing 0.2 μg ml^−1 concentrations of the auxin 2,4 dichlorophenoxyacetic acid (2,4-D) and 7 μg ml^−1 of the cytokinin 6-(γγ′- dimethylallyl amino) purine (2iP or 2aP) (Khanuja et al. 1998). This procedure has been highly efficient in generating variation in cultures of mints with greater frequencies. The cultures were grown at 25±2° C. and 400 to 600 lux light intensity with 16-h photoperiod. The regenerated shoots were separated 12 weeks latter the explant inoculation for rooting and/or screening.
The regenerated shoots (3-4 cm long, containing the apical bud and 2-3 nodes) separated from the 2,4D/2iP medium, were inoculated into MS basal medium containing vitamins, 100 mg l^−1 myo-inositol, 3% wv^−1 sucrose, 1.5% wv^−1 agar (Difco), with or without menthol (0 to 100 μg ml^−1, concentration stepped up by 10 μg serially in each treatment). On each kind of these media, 5 independent regenerated shoots were inoculated per flask; 4 flasks were inoculated per replication and each treatment was replicated 5 times, making the number of flasks to 20 and number of explants to 100 for each concentration of menthol. Like the earlier experiment this experiment was also conducted in the completely randomised design (CRD) fashion. Cultures were incubated and maintained at 25±2° C. and 400-600 lux light intensity with 16 hour photoperiod. The nature of initial responses in explants was recorded every 24 hours over a period of one week.

[2] = system: calliclones (regenerated shoots) of Mentha arvensis cv. Himalaya; assay: Large scale stepwise screening of calliclones on menthol screening medium; format: cell-based
Description: Large scale screening of clones was carried out in various batches by raising the calliclones as above. A total of 2850 shoots were transferred to the screening medium containing 50 μg ml^−1 menthol and incubated for 1 week. The surviving shoots from this medium were stepwise transferred to media containing higher concentrations of menthol ([…]). Finally the tolerant clones surviving at 70 μg ml^−1 menthol concentration were transferred individually to MS basal medium containing vitamins for rooting. The looted plantlets were subsequently hardened and transferred to pots in the glass house to raise sufficient planting material (sucker) for field experiments.
After 7 days of culture 1263 twigs survived at 50 μg ml^−1 concentration of menthol. These surviving shoots were subsequently transferred to the medium containing 60 μg ml^−1 menthol At this concentration 942 twig turned brown and died within 7 days. Finally, the 321 twigs which survived were inoculated into the screening medium containing 70 μg ml^−1 menthol. In His tertiary level screening, only 30 shoots survived (Table 5). These clones were inoculated into the rooting medium and after rooting transferred to pots in the glasshouse. The acclimatized selected plantlets from the glasshouse were transferred to the field for sucker production in the month of September 1997. In the month of January 1998, the suckers developed from each plant were field planted with 5 replicates using randomized block design. The plants grown with standard agronomic practices were harvested twice, first after 110 days of planting and subsequently 70 days after the first harvest. Ultimately, these 30 menthol tolerant clones were multiplied and grown in the field in replicated plots of 5 m×5 m sizes. The twigs of 30 clones from the replicated trials were rechecked for tolerant phenotypes at a concentration of 70 μg ml^−1 menthol wherein, these survived even after 7 days. These were also tested for survival at one step higher concentration of menthol (80 μg ml^−1). At this concentration of menthol only 5 clones (GRB 3, 14, 24, 27, 30) survived.
2. Large scale screening of the heterogeneous population of molecular variants were carried out by inoculating the regenerated independent clones into the screening medium i.e., MS basal agar containing 50 μg ml^−1 menthol followed by incubation for 1 week.
3. The surviving shoots from this medium were step-wise transferred to media containing higher concentrations of menthol (60 and 70 μg ml^−1). Finally the tolerant clones surviving at 70 μg ml^−1 menthol concentration (which cause 99% killing) are transferred individually to MS basal medium containing vitamins for rooting.

CC1CCC(C(C)C)C(O)C1 (stereo not shown) [menthol]
shoot survival ([1]; at and above 80 μg ml^−1 menthol, after 7th day): No shoots were able to survive
Survival after 24 hours % ([1]; menthol 10 μg ml^−1): 100%
Survival after 7 days % ([1]; menthol 10 μg ml^−1): 100%
Survival after 24 hours Number ([1]; menthol 10 μg ml^−1): 20.0 ± 0.00
Survival after 7 days Number ([1]; menthol 10 μg ml^−1): 20.0 ± 0.00
Survival after 24 hours % ([1]; menthol 20 μg ml^−1): 100%
Survival after 7 days % ([1]; menthol 20 μg ml^−1): 100%
Survival after 24 hours Number ([1]; menthol 20 μg ml^−1): 20.0 ± 0.00
Survival after 7 days Number ([1]; menthol 20 μg ml^−1): 20.0 ± 0.00
Survival after 24 hours % ([1]; menthol 30 μg ml^−1): 100%
Survival after 7 days % ([1]; menthol 30 μg ml^−1): 100%
Survival after 24 hours Number ([1]; menthol 30 μg ml^−1): 20.0 ± 0.00
Survival after 7 days Number ([1]; menthol 30 μg ml^−1): 20.0 ± 0.00
Survival after 24 hours % ([1]; menthol 40 μg ml^−1): 100%
Survival after 7 days % ([1]; menthol 40 μg ml^−1): 88%
Survival after 24 hours Number ([1]; menthol 40 μg ml^−1): 20.0 ± 0.00
Survival after 7 days Number ([1]; menthol 40 μg ml^−1): 17.6 ± 0.66
Survival after 24 hours % ([1]; menthol 50 μg ml^−1): 85%
Survival after 7 days % ([1]; menthol 50 μg ml^−1): 45%
Survival after 24 hours Number ([1]; menthol 50 μg ml^−1): 17.0 ± 0.91
Survival after 7 days Number ([1]; menthol 50 μg ml^−1): 9.0 ± 0.41
Survival after 24 hours % ([1]; menthol 60 μg ml^−1): 70%
Survival after 7 days % ([1]; menthol 60 μg ml^−1): 10%
Survival after 24 hours Number ([1]; menthol 60 μg ml^−1): 14.0 ± 0.58
Survival after 7 days Number ([1]; menthol 60 μg ml^−1): 2.0 ± 0.41
Survival after 24 hours % ([1]; menthol 70 μg ml^−1): 45%
Survival after 7 days % ([1]; menthol 70 μg ml^−1): 1%
Survival after 24 hours Number ([1]; menthol 70 μg ml^−1): 9.0 ± 0.91
Survival after 7 days Number ([1]; menthol 70 μg ml^−1): 0.2 ± 0.26
shoot survival ([1]; menthol 70 μg ml^−1, within 24 hours of inoculation): about 45%
death of shoots ([1]; menthol 70 μg ml^−1, within 7 days after inoculation): ~99%
Survival after 24 hours % ([1]; menthol 80 μg ml^−1): 20%
Survival after 7 days % ([1]; menthol 80 μg ml^−1): 0%
Survival after 24 hours Number ([1]; menthol 80 μg ml^−1): 4.0 ± 0.58
Survival after 7 days Number ([1]; menthol 80 μg ml^−1): 0.0 ± 0.00
Survival after 24 hours % ([1]; menthol 90 μg ml^−1): 10%
Survival after 7 days % ([1]; menthol 90 μg ml^−1): 0%
Survival after 24 hours Number ([1]; menthol 90 μg ml^−1): 2.0 ± 0.40
Survival after 7 days Number ([1]; menthol 90 μg ml^−1): 0.0 ± 0.00
Survival after 24 hours % ([1]; menthol 100 μg ml^−1): 0%
Survival after 7 days % ([1]; menthol 100 μg ml^−1): 0%
Survival after 24 hours Number ([1]; menthol 100 μg ml^−1): 0.0 ± 0.00
Survival after 7 days Number ([1]; menthol 100 μg ml^−1): 0.0 ± 0.00
twigs survived ([2]; menthol 50 μg ml^−1, after 7 days of culture, of a total of 2850 shoots): 1263
twigs which survived ([2]; menthol 60 μg ml^−1, of the 1263 survivors of 50 μg ml^−1): 321
twigs turned brown and died ([2]; menthol 60 μg ml^−1, within 7 days, of the 1263 survivors of 50 μg ml^−1): 942
killing ([2]; menthol 70 μg ml^−1): 99%
shoots survived ([2]; menthol 70 μg ml^−1, tertiary level screening of 321 twigs): 30
clones survived ([2]; menthol 80 μg ml^−1, twigs of the 30 selected tolerant clones from field trials): 5
